These results are taken from US5591714A, “Derivatives of A82846” (priority 1994, dated 1997).

Converted amounts (≈) assume the structure as drawn.

In one assay the test system is Escherichia coli EC14. The assay can be described thus: MIC, standard agar-dilution assay. Format: cell-based. How it is done:
(§1) The formula I compounds have in vitro and in vivo activity against Gram-positive pathogenic bacteria. The MIC's were determined using a standard agar-dilution assays.

In the next assay the test system is Escherichia coli N10. The assay can be described thus: MIC, standard agar-dilution assay. Format: cell-based. How it is done: as §1
For a further assay, the system named is Escherichia coli TEM. The assay can be described thus: MIC, standard agar-dilution assay. Format: cell-based. How it is done: as §1
Assay [1] relates to Haemophilus influenzae 76. The assay can be described thus: MIC, standard agar-dilution assay. Type of assay: cell-based. How it is done: as §1
Assay [2] concerns Haemophilus influenzae C.L. The assay can be described thus: MIC, standard agar-dilution assay. Type of assay: cell-based. How it is done:
as §1

The test system of assay [3] is Klebsiella pneumoniae KAE. The assay can be described thus: MIC, standard agar-dilution assay. Type of assay: cell-based. How it is done:
as §1

The subject of assay [4] is Klebsiella pneumoniae X26. The assay can be described thus: MIC, standard agar-dilution assay. Type of assay: cell-based. As to the method: as §1
Assay [5] relates to Klebsiella pneumoniae X68. The assay can be described thus: MIC, standard agar-dilution assay. Type of assay: cell-based. As to the method: as §1
The test system of assay [6] is Staphylococcus aureus NRRL X1.1. The assay can be described thus: MIC, standard agar-dilution assay. Format: cell-based. How it is done: as §1
Assay [7] concerns Staphylococcus aureus V41. The assay can be described thus: MIC, standard agar-dilution assay. Format: cell-based. How it is done: as §1
Assay [8] has as its system Staphylococcus aureus X400. The assay can be described thus: MIC, standard agar-dilution assay. Type of assay: cell-based. How it is done:
as §1

For assay [9], the system named is Staphylococcus epidermidis 222. The assay can be described thus: MIC, standard agar-dilution assay. Type of assay: cell-based. How it is done:
as §1

Assay [10] concerns Staphylococcus epidermidis EPI270. The assay can be described thus: MIC, standard agar-dilution assay. Format: cell-based. As to the method: as §1
The test system of assay [11] is Streptococcus pyogenes C203. The assay can be described thus: MIC, standard agar-dilution assay. Type of assay: cell-based. As to the method: as §1
For assay [12], the system named is Staphylococcus aureus S13E. Type of assay: cell-based. As to the method: as §1
Assay [13] has as its system Streptococcus pneumoniae Park 1. Type of assay: cell-based. How it is done:
as §1

The next assay concerns Enterococcus faecium X66. The assay can be described thus: MIC, standard agar-dilution assay. Format: cell-based. How it is done: as §1
^b Formerly Streptococcus faecium X66

For assay [14], the system named is Enterococcus faecalis 2041. The assay can be described thus: MIC, standard agar-dilution assay. Format: cell-based. As to the method:
as §1
^c Formerly Streptococcus faecalis 2041

The test system of a further assay is Staphylococcus aureus. The assay can be described thus: In vivo activity, experimentally infected mice (ED50). Particulars: Staphylococcus aureus infection; doses administered subcutaneously to mice 1 and 4 hours postinfection.
For the next assay, the system named is Streptococcus pyogenes. Described as above. Particulars: Streptococcus pyogenes infection; doses administered subcutaneously to mice 1 and 4 hours postinfection.
For a further assay, the system named is Streptococcus pneumoniae. The assay is described as above. Particulars: Streptococcus pneumoniae infection; doses administered subcutaneously to mice 1 and 4 hours postinfection.

On to `CCCCCN(C)[C@H](CC(C)C)C(=O)N[C@H]1C(=O)N[C@@H](CC(N)=O)C(=O)N[C@H]2C(=O)N[C@H]3C(=O)N[C@H](C(=O)N[C@H](C(=O)O)c4cc(O)cc(O)c4-c4cc3ccc4O)[C@H](O[C@H]3C[C@](C)(N)[C@@H](O)[C@H](C)O3)c3ccc(cc3)Oc3cc2cc(c3O[C@@H]2O[C@H](CO)[C@@H](O)[C@H](O)[C@H]2O[C@H]2C[C@](C)(N)[C@@H](O)[C@H](C)O2)Oc2ccc(cc2Cl)[C@H]1O` [Compound 6], for which the MIC (against Escherichia coli EC14; against Escherichia coli N10; with Escherichia coli TEM; in [1]; in assay [2]; in assay [3]) was > 128 µg/mL throughout. The MIC in assay [4] was > 128 µg/mL; in assay [5], > 128 µg/mL; in assay [6] it was “.25 µg/mL”; in assay [7], “.25 µg/mL”; in assay [8], “.25 µg/mL”; in [9], “.5 µg/mL”. Besides, the MIC result is “.5 µg/mL” in assay [10]; “.125 µg/mL” in [11]; “.25 µg/mL” in assay [12]; “.125 µg/mL” in assay [13]; 1 µg/mL (≈ 0.614 µM) against Enterococcus faecium X66; 1 µg/mL (≈ 0.614 µM) in [14]. The values for the ED50 in the assay with Staphylococcus aureus, in the assay with Streptococcus pyogenes and in the assay with Streptococcus pneumoniae were 0.88 mg/kg/2, 0.67 mg/kg/2 and 0.94 mg/kg/2, respectively.
For the compound `CCCCCN[C@@]1(C)C[C@H](O[C@H]2[C@H](Oc3c4cc5cc3Oc3ccc(cc3Cl)[C@@H](O)[C@@H](NC(=O)[C@@H](CC(C)C)N(C)CCCCC)C(=O)N[C@@H](CC(N)=O)C(=O)N[C@H]5C(=O)N[C@H]3C(=O)N[C@H](C(=O)N[C@H](C(=O)O)c5cc(O)cc(O)c5-c5cc3ccc5O)[C@H](O[C@H]3C[C@](C)(N)[C@@H](O)[C@H](C)O3)c3ccc(cc3)O4)O[C@H](CO)[C@@H](O)[C@@H]2O)O[C@@H](C)[C@@H]1O` [Compound 7], the MIC (in the assay with Escherichia coli EC14; with Escherichia coli N10; in the assay with Escherichia coli TEM; in [1]; in assay [2]; in assay [3]) was > 128 µg/mL in each case. Further, the MIC in [4] was > 128 µg/mL; in assay [5] it was > 128 µg/mL; in [6], 1 µg/mL (≈ 0.589 µM); in assay [7] it was 1 µg/mL (≈ 0.589 µM); in assay [8], 1 µg/mL (≈ 0.589 µM); in assay [9], 1 µg/mL (≈ 0.589 µM). The MIC in [10] was 2 µg/mL (≈ 1.18 µM); in [11] it was “.5 µg/mL”; in assay [12], 1 µg/mL (≈ 0.589 µM); in assay [13], “.5 µg/mL”; against Enterococcus faecium X66, 2 µg/mL (≈ 1.18 µM); in [14], 2 µg/mL (≈ 1.18 µM). Besides, the results for the ED50 in the assay on Staphylococcus aureus, in the assay on Streptococcus pyogenes and in the assay with Streptococcus pneumoniae were 4.09 mg/kg/2, 0.83 mg/kg/2 and 0.98 mg/kg/2, respectively.
Regarding `CN[C@H](CC(C)C)C(=O)N[C@H]1C(=O)N[C@@H](CC(N)=O)C(=O)N[C@H]2C(=O)N[C@H]3C(=O)N[C@H](C(=O)N[C@H](C(=O)O)c4cc(O)cc(O)c4-c4cc3ccc4O)[C@H](O[C@H]3C[C@](C)(N)[C@@H](O)[C@H](C)O3)c3ccc(cc3)Oc3cc2cc(c3O[C@@H]2O[C@H](CO)[C@@H](O)[C@H](O)[C@H]2O[C@H]2C[C@](C)(NCc3ccccc3)[C@@H](O)[C@H](C)O2)Oc2ccc(cc2Cl)[C@H]1O` [Compound 10], the MIC (in the assay with Escherichia coli EC14; against Escherichia coli N10; against Escherichia coli TEM; in [1]; in [2]; in assay [3]) was > 128 µg/mL each time. The MIC in [4] was > 128 µg/mL; in assay [5] it was > 128 µg/mL; in assay [6] it was “.25 µg/mL”; in [7], “.25 µg/mL”; in assay [8], “.5 µg/mL”; in assay [9] it was “.25 µg/mL”. Also, the MIC entry in [10] was “.25 µg/mL”; in [11], “.25 µg/mL”; in [12] it was “.125 µg/mL”; in [13] it was “.125 µg/mL”; with Enterococcus faecium X66, “.25 µg/mL”; in assay [14], “.5 µg/mL”. Moreover, the ED50 amounted to 0.46 mg/kg/2 with Staphylococcus aureus, 0.2 mg/kg/2 in the assay on Streptococcus pyogenes and 0.4 mg/kg/2 in the assay on Streptococcus pneumoniae.
Take `CCN(CC)c1ccc(CN[C@@]2(C)C[C@H](O[C@H]3[C@H](Oc4c5cc6cc4Oc4ccc(cc4Cl)[C@@H](O)[C@@H](NC(=O)[C@@H](CC(C)C)NC)C(=O)N[C@@H](CC(N)=O)C(=O)N[C@H]6C(=O)N[C@H]4C(=O)N[C@H](C(=O)N[C@H](C(=O)O)c6cc(O)cc(O)c6-c6cc4ccc6O)[C@H](O[C@H]4C[C@](C)(N)[C@@H](O)[C@H](C)O4)c4ccc(cc4)O5)O[C@H](CO)[C@@H](O)[C@@H]3O)O[C@@H](C)[C@@H]2O)cc1` [Compound 17]: the MIC (against Escherichia coli EC14; against Escherichia coli N10; against Escherichia coli TEM; in assay [1]; in assay [2]; in assay [3]) was > 128 µg/mL each time. The MIC in assay [4] was > 128 µg/mL; in assay [5] it was > 128 µg/mL; in assay [6], “.5 µg/mL”; in assay [7], “.5 µg/mL”; in [8] it was “.5 µg/mL”; in [9], “.5 µg/mL”. In addition, the MIC in [10] is 1 µg/mL (≈ 0.582 µM); in assay [11], “.25 µg/mL”; in assay [12] it was “.5 µg/mL”; in assay [13] it was “.25 µg/mL”; against Enterococcus faecium X66, 1 µg/mL (≈ 0.582 µM); in assay [14], 1 µg/mL (≈ 0.582 µM). Also, the ED50 is listed as 0.78 mg/kg/2 in the assay with Staphylococcus aureus, 0.23 mg/kg/2 in the assay on Streptococcus pyogenes and 0.33 mg/kg/2 with Streptococcus pneumoniae.
On to `CN[C@H](CC(C)C)C(=O)N[C@H]1C(=O)N[C@@H](CC(N)=O)C(=O)N[C@H]2C(=O)N[C@H]3C(=O)N[C@H](C(=O)N[C@H](C(=O)O)c4cc(O)cc(O)c4-c4cc3ccc4O)[C@H](O[C@H]3C[C@](C)(NCc4ccc(Cl)cc4)[C@@H](O)[C@H](C)O3)c3ccc(cc3)Oc3cc2cc(c3O[C@@H]2O[C@H](CO)[C@@H](O)[C@H](O)[C@H]2O[C@H]2C[C@](C)(N)[C@@H](O)[C@H](C)O2)Oc2ccc(cc2Cl)[C@H]1O` [Compound 21], for which the MIC (in the assay with Escherichia coli EC14; against Escherichia coli N10; against Escherichia coli TEM; in assay [1]; in assay [2]; in [3]) was > 128 µg/mL throughout. The MIC in assay [4] is > 128 µg/mL; in assay [5] it was > 128 µg/mL; in [6], “.5 µg/mL”; in assay [7] it was “.5 µg/mL”; in [8] it was “.5 µg/mL”; in assay [9], “.25 µg/mL”. Further, the MIC entry is “.5 µg/mL” in [10]; “.5 µg/mL” in [11]; “.25 µg/mL” in [12]; “.5 µg/mL” in assay [13]; “.5 µg/mL” with Enterococcus faecium X66; “.5 µg/mL” in assay [14]. The ED50 in the assay on Streptococcus pyogenes came out at 0.29 mg/kg/2; with Streptococcus pneumoniae it was 0.47 mg/kg/2.
Consider `CN[C@H](CC(C)C)C(=O)N[C@H]1C(=O)N[C@@H](CC(N)=O)C(=O)N[C@H]2C(=O)N[C@H]3C(=O)N[C@H](C(=O)N[C@H](C(=O)O)c4cc(O)cc(O)c4-c4cc3ccc4O)[C@H](O[C@H]3C[C@](C)(NCc4ccc(Cl)cc4)[C@@H](O)[C@H](C)O3)c3ccc(cc3)Oc3cc2cc(c3O[C@@H]2O[C@H](CO)[C@@H](O)[C@H](O)[C@H]2O[C@H]2C[C@](C)(NCc3ccc(Cl)cc3)[C@@H](O)[C@H](C)O2)Oc2ccc(cc2Cl)[C@H]1O` [Compound 23], for which the MIC (against Escherichia coli EC14; against Escherichia coli N10; with Escherichia coli TEM; in [1]; in assay [2]; in assay [3]) was > 128 µg/mL in each case. Moreover, the MIC is > 128 µg/mL in assay [4]; > 128 µg/mL in assay [5]; 2 µg/mL (≈ 1.11 µM) in assay [6]; 2 µg/mL (≈ 1.11 µM) in assay [7]; 2 µg/mL (≈ 1.11 µM) in assay [8]; 1 µg/mL (≈ 0.553 µM) in assay [9]. In addition, the MIC in [10] came to 2 µg/mL (≈ 1.11 µM); in [11], 2 µg/mL (≈ 1.11 µM); in assay [12], 2 µg/mL (≈ 1.11 µM); in assay [13], 1 µg/mL (≈ 0.553 µM); with Enterococcus faecium X66, 4 µg/mL (≈ 2.21 µM); in [14] it was 4 µg/mL (≈ 2.21 µM). In addition, the ED50 is given as 0.8 mg/kg/2 in the assay on Streptococcus pyogenes and 1.02 mg/kg/2 in the assay on Streptococcus pneumoniae.
